“And” between values parts separate entries of the source, which are not always exact repeats. Equal values may be shown once. Read-outs that look alike come from different tables or passages of the source.
What was measured:
PTK2B/PYK2 [1] = target: T1, PTK2B/PYK2 (Homo sapiens, UniProt Q14289); test: PYK2 kinase assay, DELFIA format; assay type: biochemical
T1 construct: purchased Invitrogen/Life Technologies
Method: (§1) IC50 values on FAK and PYK2 were determined using the DELFIA® format, using kinase proteins obtained from Invitrogen (#PV3832, #PV4567) and biotinylated poly(Glu,Tyr) as substrate. Incubation in the presence of test compound was followed by detection of phosphorylated substrate using streptavidin-coated plates and Eu-N1 anti-phospho-Tyr PT66 antibody (#AD0040, VICTOR™ reader, both Perkin Elmer). Data were analyzed using GraphPad Prism. […] Data was fitted by iterative calculation using a sigmoidal curve analysis with variable Hill slope. In independent assays, IC50 values were determined using Z'-LYTE® technology, which is based on FRET (Invitrogen/Life Technologies).

PTK2B/PYK2 [2] = target: T1, PTK2B/PYK2; test: PYK2 kinase assay, Z'-LYTE (FRET); assay type: biochemical
Method: as §1

FER = target: T2, FER (Homo sapiens, UniProt P16591); test: FER kinase assay, Z'-LYTE; assay type: biochemical
T2 construct: purchased Invitrogen/Life Technologies
Method: as §1, with “Technologies). Selectivity was determined on the Invitrogen kinase panel at 1 µmol/L.” for “Technologies).”

FES = target: T3, FES (Homo sapiens, UniProt P07332); test: FES kinase assay, Z'-LYTE; assay type: biochemical
T3 construct: purchased Invitrogen/Life Technologies
Method: as §1, with “Technologies). Selectivity was determined on the Invitrogen kinase panel at 1 µmol/L.” for “Technologies).”

PAK7 = target: T4, PAK7 (Homo sapiens, UniProt Q9P286); test: PAK7 kinase assay, Z'-LYTE; assay type: biochemical
T4 construct: purchased Invitrogen/Life Technologies
Method: as §1, with “Technologies). Selectivity was determined on the Invitrogen kinase panel at 1 µmol/L.” for “Technologies).”

PC-3 cells [3] = test: Proliferation assay, adherent monolayer, alamarBlue; assay type: cell-based, human; conditions: Homo sapiens, PC-3, adherent monolayers
Method: PC-3 cells were incubated with compounds for 5 days at 37 °C/5% CO2, stained with alamarBlue® and fluorescence was determined (544 nm/590 nm). Data were analyzed as described above.

PC-3 cells [4] = test: Clonogenic assay in soft agar (anchorage-independent growth); assay type: cell-based, human; conditions: Homo sapiens, PC-3, alamarBlue, read-out: Colony formation EC50 PC-3
Method: Clonogenic assays were performed using agarose-containing media. Cells were incubated at 37 °C and 5% CO2 for 14 days. alamarBlue® was used to detect colonies of viable cells (530 nm/590 nm). Data analysis was performed as described above.

[5] = test system: Calu-6 lung adenocarcinoma cells; test: Cancer cell line panel, 2D proliferation (Eurofins Panlabs); assay type: cell-based, human; conditions: Calu-6, 2D culture, 72 h
Method: (§2) Drug sensitivity of a panel of human cancer cell lines was tested at Eurofins Panlabs (Bothell, WA, USA). Cells were treated for 72 h, fixed and stained with diaminophenylindole to visualize nuclei and the fluorescence intensity of each well was measured (GE Healthcare IN Cell Analyzer 1000). Relative cell proliferation in compound-treated cultures (signal as percent of control, “POC”) was calculated as follows: POC (t = 72 h) = 100 × fluorescence (compound wells) / fluorescence (control wells). In addition, for each compound-treated culture, the cell count after incubation for 72 h (POC [t = 72 h]) was related to the count at start of treatment (POC [t = 0 h]): POC [t = 0 h] = 100 × fluorescence at t = 0 [control wells]/fluorescence at t = 72 h [control wells]). To calculate concentration–response curves, POC data were analyzed using a four-parameter log-logistic function without upper or lower limitation.

PC-3 = test: as above; assay type: cell-based, human; conditions: PC-3, 2D culture, 72 h
Method: as §2

[6] = test system: panel of 243 cancer cell lines; test: as above; assay type: cell-based, human; conditions: 2D culture
Method: as §2

[7] = Single-dose pharmacokinetics in nude mice; assay type: in vivo
Description: (§3) Plasma and homogenized tumor samples were extracted and analyzed by LC-MS. Detection was at unit resolution with a MRM 589.2/474.8. All calibration and QC samples were with ±20% (p.o.) and ±30% (i.v.) of the nominal value in the linear range of the calibration fitted with a linear regression and 1/x^2 weighting.

[8] = Drug concentrations in plasma and tumor of PC-3 tumor-bearing mice; assay type: in vivo; conditions: BomTac:NMRI-Foxn1^nu, mouse; for concentration at 24 h: oral
Description: as §3

[9] = Tolerability of daily oral dosing in nude mice; assay type: in vivo; conditions: daily oral doses of 50 mg/kg
Method: For efficacy studies, 1 × 10^7 MIA PaCa-2 or 1 × 10^6 BxPC-3 cells (with Matrigel® 50:50) were injected subcutaneously into the right flank of female BomTac:NMRI-Foxn1^nu mice (age 6 weeks, 24-30 g; Taconic, Denmark). […] Mice were randomized according to tumor volume when tumors had reached diameters of 6–8 mm. […] Natrosol-treated animals served as vehicle controls (n = 10). Tumor diameters were measured three times weekly using a caliper and volumes were calculated according to the formula “tumor volume = length × diameter^2 × π/6”. Mice were inspected daily for abnormalities and body weight was determined three times weekly. Animals were euthanized at the end of the study or prematurely, based on criteria including weight loss exceeding 20%, tumor necrosis or tumor volumes exceeding 1500 mm^3.

A-498 kidney xenograft = test: Subcutaneous xenograft efficacy; assay type: in vivo, mice
Method: (§4) For efficacy studies, 1 × 10^7 MIA PaCa-2 or 1 × 10^6 BxPC-3 cells (with Matrigel® 50:50) were injected subcutaneously into the right flank of female BomTac:NMRI-Foxn1^nu mice (age 6 weeks, 24-30 g; Taconic, Denmark). These two and the following tumor models were established from adherently grown cells which were either subcutaneously injected in PBS (LoVo, SW480, A-498, Calu-6, NCI-H2122, A549, SK-OV-3, TOV-21G, AsPC-1, PC-3) or were injected with Matrigel (HCC-461, A2780, PANC-1 and Hs 746 T). For the Caki-1 tumor model tumor fragments were passaged in mice. Mice were randomized according to tumor volume when tumors had reached diameters of 6–8 mm. […] Natrosol-treated animals served as vehicle controls (n = 10). Tumor diameters were measured three times weekly using a caliper and volumes were calculated according to the formula “tumor volume = length × diameter^2 × π/6”. Mice were inspected daily for abnormalities and body weight was determined three times weekly. Animals were euthanized at the end of the study or prematurely, based on criteria including weight loss exceeding 20%, tumor necrosis or tumor volumes exceeding 1500 mm^3.
(§5) Statistical evaluation was performed using SAS 8.2 (SAS Institute, Cary, NC, USA) and Proc StatXact (Cytel Software, Cambridge, MA, USA).
(§6) where Td and Cd denote the median of the tumor volume in the treatment group and the control group at day d, respectively. A one-sided increasing Wilcoxon test was applied to compare each experimental group with the vehicle control, the p values were adjusted for multiple comparisons according to Bonferroni–Holm. The level of significance was fixed at α = 5%. An adjusted p value of <0.05 was considered to show a significant difference between groups.

A2780 ovary xenograft = test: Subcutaneous xenograft efficacy; assay type: in vivo, mice
Method: as §4, §5, §6

A549 lung xenograft = test: Subcutaneous xenograft efficacy; assay type: in vivo, mice
Method: as §4, §5, §6

[10] = test system: AsPC-1 pancreas xenograft; test: Subcutaneous xenograft efficacy; assay type: in vivo, mice
Method: as §4, §5, §6

[11] = test system: BxPC-3 pancreas adenocarcinoma xenograft; test: Subcutaneous xenograft efficacy; assay type: in vivo, mice; conditions: BxPC-3, 50 mg/kg
Method: as §4, §5, §6

Caki-1 kidney xenograft = test: Subcutaneous xenograft efficacy; assay type: in vivo, mice
Method: as §4, §5, §6

Calu-6 lung xenograft = test: Subcutaneous xenograft efficacy; assay type: in vivo, mice
Method: as §4, §5, §6

HCC-461 lung xenograft = test: Subcutaneous xenograft efficacy; assay type: in vivo, mice
Method: as §4, §5, §6

[12] = test system: Hs 746T stomach xenograft; test: Subcutaneous xenograft efficacy; assay type: in vivo, mice
Method: as §4, §5, §6

[13] = test system: LoVo colon/rectum xenograft; test: Subcutaneous xenograft efficacy; assay type: in vivo, mice
Method: as §4, §5, §6

[14] = test system: MIA PaCa-2 pancreas adenocarcinoma xenograft; test: Subcutaneous xenograft efficacy; assay type: in vivo, mice
Method: as §4, §5, §6

[15] = test system: NCI-H2122 lung carcinoma xenograft; test: Subcutaneous xenograft efficacy; assay type: in vivo, mice
Method: as §4, §5, §6

[16] = test system: PANC-1 pancreas xenograft; test: Subcutaneous xenograft efficacy; assay type: in vivo, mice
Method: as §4, §5, §6

[17] = test system: PC-3 prostate carcinoma xenograft; test: Subcutaneous xenograft efficacy; assay type: in vivo, mice
Method: as §4, §5, §6

[18] = test system: SK-OV-3 ovarian carcinoma xenograft; test: Subcutaneous xenograft efficacy; assay type: in vivo, mice
Method: as §4, §5, §6

[19] = test system: SW480 colon carcinoma xenograft; test: Subcutaneous xenograft efficacy; assay type: in vivo, mice
Method: as §4, §5, §6

TOV-21G ovary xenograft = test: Subcutaneous xenograft efficacy; assay type: in vivo, mice
Method: as §4, §5, §6

NCI-H2110 lung xenograft = test: Subcutaneous xenograft efficacy; assay type: in vivo, mice
Method: as §5, §6

[20] = clinical trials NCT01905111 and NCT01335269; cited from earlier work
[21] = female, BomTac:NMRI-Foxn1^nu, mouse, plasma, single oral dose 50 mg/kg

T1 sequence (Q14289 whole entry): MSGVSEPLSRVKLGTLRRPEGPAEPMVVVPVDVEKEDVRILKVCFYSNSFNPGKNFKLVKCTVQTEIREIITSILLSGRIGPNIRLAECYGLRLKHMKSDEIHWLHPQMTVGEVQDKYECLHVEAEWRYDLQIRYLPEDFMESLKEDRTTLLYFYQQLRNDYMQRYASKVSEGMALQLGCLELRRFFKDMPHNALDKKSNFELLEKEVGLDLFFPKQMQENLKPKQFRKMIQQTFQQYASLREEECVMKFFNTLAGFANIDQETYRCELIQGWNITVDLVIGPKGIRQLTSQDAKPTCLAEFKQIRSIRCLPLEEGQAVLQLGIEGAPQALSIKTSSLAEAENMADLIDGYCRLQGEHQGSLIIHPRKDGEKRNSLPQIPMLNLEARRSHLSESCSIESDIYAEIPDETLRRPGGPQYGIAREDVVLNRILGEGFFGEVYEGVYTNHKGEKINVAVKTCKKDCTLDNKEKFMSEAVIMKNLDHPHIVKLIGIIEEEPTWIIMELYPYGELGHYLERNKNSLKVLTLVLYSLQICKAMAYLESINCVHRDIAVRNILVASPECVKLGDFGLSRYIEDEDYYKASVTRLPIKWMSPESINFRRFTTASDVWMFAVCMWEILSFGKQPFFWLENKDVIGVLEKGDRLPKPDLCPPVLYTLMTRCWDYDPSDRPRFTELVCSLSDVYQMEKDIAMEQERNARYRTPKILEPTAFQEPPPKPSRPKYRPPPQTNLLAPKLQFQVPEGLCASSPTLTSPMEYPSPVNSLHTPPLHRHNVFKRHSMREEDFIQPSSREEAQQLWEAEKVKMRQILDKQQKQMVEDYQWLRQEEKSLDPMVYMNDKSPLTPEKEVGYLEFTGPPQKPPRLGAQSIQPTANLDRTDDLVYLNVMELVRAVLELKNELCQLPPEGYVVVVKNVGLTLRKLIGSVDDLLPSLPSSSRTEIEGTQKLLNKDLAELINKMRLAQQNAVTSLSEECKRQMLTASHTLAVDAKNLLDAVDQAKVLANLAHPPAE
T2 sequence (P16591 whole entry): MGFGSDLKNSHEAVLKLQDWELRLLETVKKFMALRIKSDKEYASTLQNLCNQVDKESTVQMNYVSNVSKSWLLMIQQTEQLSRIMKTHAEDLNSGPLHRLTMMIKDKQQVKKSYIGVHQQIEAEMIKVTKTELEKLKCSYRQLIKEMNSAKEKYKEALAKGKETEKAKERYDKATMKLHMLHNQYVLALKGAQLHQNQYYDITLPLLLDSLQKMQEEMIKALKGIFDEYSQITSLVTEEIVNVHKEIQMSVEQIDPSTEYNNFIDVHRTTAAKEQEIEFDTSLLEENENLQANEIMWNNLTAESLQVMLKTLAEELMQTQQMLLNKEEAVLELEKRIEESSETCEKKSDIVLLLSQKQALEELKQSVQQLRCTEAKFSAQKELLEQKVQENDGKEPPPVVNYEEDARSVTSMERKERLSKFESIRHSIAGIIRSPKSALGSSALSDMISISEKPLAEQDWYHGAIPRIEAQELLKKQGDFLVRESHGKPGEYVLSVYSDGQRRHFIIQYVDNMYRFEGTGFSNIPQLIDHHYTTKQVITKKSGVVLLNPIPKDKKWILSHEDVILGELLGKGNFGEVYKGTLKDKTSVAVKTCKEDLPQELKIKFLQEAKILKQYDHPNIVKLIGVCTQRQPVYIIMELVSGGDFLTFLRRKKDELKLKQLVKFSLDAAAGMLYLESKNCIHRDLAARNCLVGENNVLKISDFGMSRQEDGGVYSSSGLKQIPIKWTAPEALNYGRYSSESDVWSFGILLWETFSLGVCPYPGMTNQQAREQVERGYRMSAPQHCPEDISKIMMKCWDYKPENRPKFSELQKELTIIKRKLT
T3 sequence (P07332 whole entry): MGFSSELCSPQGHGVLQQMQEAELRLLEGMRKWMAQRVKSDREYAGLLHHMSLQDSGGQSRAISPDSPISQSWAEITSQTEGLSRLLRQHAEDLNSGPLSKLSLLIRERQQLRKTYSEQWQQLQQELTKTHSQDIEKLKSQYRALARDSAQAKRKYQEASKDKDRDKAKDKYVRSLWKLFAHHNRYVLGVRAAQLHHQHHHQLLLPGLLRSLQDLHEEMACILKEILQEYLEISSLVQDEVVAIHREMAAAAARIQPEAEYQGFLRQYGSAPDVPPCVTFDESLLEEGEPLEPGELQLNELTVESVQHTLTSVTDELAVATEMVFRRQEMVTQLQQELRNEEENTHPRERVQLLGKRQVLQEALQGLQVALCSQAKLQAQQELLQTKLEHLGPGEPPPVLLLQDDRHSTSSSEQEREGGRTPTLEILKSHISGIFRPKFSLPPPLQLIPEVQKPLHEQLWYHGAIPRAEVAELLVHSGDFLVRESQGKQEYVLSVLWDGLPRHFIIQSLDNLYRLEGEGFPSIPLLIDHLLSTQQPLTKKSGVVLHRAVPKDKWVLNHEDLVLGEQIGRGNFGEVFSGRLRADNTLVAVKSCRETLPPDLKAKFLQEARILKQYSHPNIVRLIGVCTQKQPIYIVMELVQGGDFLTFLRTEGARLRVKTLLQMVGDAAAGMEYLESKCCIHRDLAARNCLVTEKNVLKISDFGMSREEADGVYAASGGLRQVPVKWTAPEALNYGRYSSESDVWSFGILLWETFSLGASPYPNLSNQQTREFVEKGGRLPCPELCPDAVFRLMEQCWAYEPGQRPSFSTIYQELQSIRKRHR
T4 sequence (Q9P286 whole entry): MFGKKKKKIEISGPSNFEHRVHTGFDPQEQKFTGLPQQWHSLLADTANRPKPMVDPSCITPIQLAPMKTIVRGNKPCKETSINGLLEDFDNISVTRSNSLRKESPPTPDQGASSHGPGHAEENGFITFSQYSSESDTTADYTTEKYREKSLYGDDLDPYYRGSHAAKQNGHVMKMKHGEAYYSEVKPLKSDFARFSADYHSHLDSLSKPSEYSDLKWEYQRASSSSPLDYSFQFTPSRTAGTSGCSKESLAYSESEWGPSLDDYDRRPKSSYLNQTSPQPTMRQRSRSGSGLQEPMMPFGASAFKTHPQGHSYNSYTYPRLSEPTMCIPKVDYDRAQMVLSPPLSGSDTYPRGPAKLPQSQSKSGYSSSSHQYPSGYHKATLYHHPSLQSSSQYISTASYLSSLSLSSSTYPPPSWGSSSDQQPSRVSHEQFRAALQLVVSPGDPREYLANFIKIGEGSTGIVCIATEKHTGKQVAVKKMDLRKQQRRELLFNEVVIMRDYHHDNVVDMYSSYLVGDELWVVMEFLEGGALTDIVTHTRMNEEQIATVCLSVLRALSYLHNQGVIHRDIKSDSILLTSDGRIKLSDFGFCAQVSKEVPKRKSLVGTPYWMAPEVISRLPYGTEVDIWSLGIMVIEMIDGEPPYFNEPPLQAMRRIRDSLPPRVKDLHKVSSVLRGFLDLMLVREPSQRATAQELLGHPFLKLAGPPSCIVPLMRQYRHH

COc1cc(C(=O)NC2CCN(C)CC2)c(F)cc1Nc1ncc(C(F)(F)F)c(Oc2cccc3c2C(=O)N(C)C3)n1 [BI 853520]
IC50 (PTK2B/PYK2 [1]): > 50000 nM
IC50 (PTK2B/PYK2 [2]): 2000 nM
IC50 (FER): 903 nM
IC50 (FES): 1040 nM
IC50 (PAK7): > 10000 nM
EC50 (PC-3 cells [3]): > 3000 nM
EC50 (PC-3 cells [4]): 3 nM
maximal inhibition of proliferation [5]: 40%
EC50 ([5]; Homo sapiens): 3 nM
EC50 (PC-3; Homo sapiens): 10 nM
maximal inhibition of proliferation (PC-3): 20%
EC50 ([6]; Homo sapiens, few cell lines with interpretable sigmoid curves): 3 to 30 nM
effect on proliferation, vast majority of cell lines ([6]; concentrations as high as 1 µmol/L): not affected
maximal inhibition of proliferation ([6]; few cell lines with interpretable sigmoid curves): 20–30%
clearance ([7]; BomTac:NMRI-Foxn1^nu, mouse, plasma, single intravenous dose 5 mg/kg, female nude mice): 36 mL/min/kg
MRT ([7]; BomTac:NMRI-Foxn1^nu, mouse, plasma, single intravenous dose 5 mg/kg, female nude mice, read-out: mean residence time): 3 h
Vd ([7]; BomTac:NMRI-Foxn1^nu, mouse, plasma, single intravenous dose 5 mg/kg, female nude mice, read-out: volume of distribution): 6.6 L/kg
bioavailability [7, 21]: 90%
half-life [7, 21]: 5 h
Tmax ([7]; female, BomTac:NMRI-Foxn1^nu, mouse, single oral dose 50 mg/kg, plasma, read-out: time of maximal concentration): 2 h
AUC ([7]; single oral dose 50 mg/kg): 46 µM·h
maximal concentration ([7]; single oral dose 50 mg/kg, plasma): 4.4 µmol/L
concentration at 24 h ([8]; PC-3 tumor tissue, 50 mg/kg p.o. qdx4, 24 h after dose on day 4, PC-3 tumors, read-out: concentration in tumor tissue): 8.9 µM
Tmax ([8]; PC-3 tumor tissue, po, 50 mg/kg p.o. qdx4, day 4, PC-3 tumors, read-out: time of peak level in tumor tissue): 6 h
concentration at 24 h ([8]; plasma, 50 mg/kg p.o. qdx4, 24 h after dose on day 4, read-out: plasma level): 1.3 µM
tolerability (body weight gain, clinical signs) [9]: well tolerated
Median TGI (A-498 kidney xenograft; A-498, 50 mg/kg once daily per os): 93%
TGI (A-498 kidney xenograft; A-498 xenograft, Supplement Table 3): 93%
Median TGI (A2780 ovary xenograft; A2780, 50 mg/kg once daily per os): 89%
TGI (A2780 ovary xenograft; A2780 xenograft, Supplement Table 3): 89%
Median TGI (A549 lung xenograft; A549, 50 mg/kg once daily per os): 15 (n.s.) % and 15%
TGI (A549 lung xenograft; A549 xenograft, Supplement Table 3): 15%
Median TGI ([10]; AsPC-1, 50 mg/kg once daily per os): 13 (n.s.) % and 13%
TGI ([10]; AsPC-1 xenograft, Supplement Table 3): 13%
Median TGI [11]: 29%
Median TGI (Caki-1 kidney xenograft; Caki-1, 50 mg/kg once daily per os): 66%
TGI (Caki-1 kidney xenograft; Caki-1 xenograft, Supplement Table 3): 66%
Median TGI (Calu-6 lung xenograft; Calu-6, 50 mg/kg once daily per os): 102%
TGI (Calu-6 lung xenograft; Calu-6 xenograft, Supplement Table 3): 102%
Median TGI (HCC-461 lung xenograft; HCC-461, 50 mg/kg once daily per os): 102%
TGI (HCC-461 lung xenograft; HCC-461 xenograft, Supplement Table 3): 102%
TGI ([12]; Hs 746T xenograft, Supplement Table 3): 72%
Median TGI ([12]; Hs 746T, 50 mg/kg once daily per os): 72%
TGI ([13]; LoVo xenograft, Supplement Table 3): 14%
Median TGI ([13]; LoVo, 50 mg/kg once daily per os, 50 mg/kg): 14 (n.s.) % and 14%
TGI ([14]; MIA PaCa-2, 12.5 mg/kg, second independent study): 89%
partial regressions ([14]; MIA PaCa-2, 25 mg/kg once daily): 5 out of 10 tumors
TGI ([14]; MIA PaCa-2, 25 mg/kg once daily, first study): 94%
TGI ([14]; MIA PaCa-2, 25 mg/kg, second independent study): 96%
partial regressions ([14]; MIA PaCa-2, 50 mg/kg once daily): 6 out of 10 tumors
Median TGI ([14]; MIA PaCa-2, 50 mg/kg once daily per os): 104%
TGI ([14]; MIA PaCa-2 xenograft, Supplement Table 3): 104%
Median TGI ([15]; NCI-H2122, 50 mg/kg once daily per os): 45 (n.s.) % and 45%
TGI ([15]; NCI-H2122 xenograft, Supplement Table 3): 45%
Median TGI ([16]; PANC-1, 50 mg/kg once daily per os): 83%
TGI ([16]; PANC-1 xenograft, Supplement Table 3): 83%
Median TGI ([17]; PC-3, 50 mg/kg once daily per os): 93%
TGI ([17]; PC-3 xenograft, Supplement Table 3): 93%
Median TGI ([18]; SK-OV-3, 50 mg/kg once daily per os): 57%
TGI ([18]; SK-OV-3 xenograft, Supplement Table 3): 57%
Median TGI ([19]; SW480, 50 mg/kg once daily per os): 26 (n.s.) % and 26%
TGI ([19]; SW480 xenograft, Supplement Table 3): 26%
TGI (TOV-21G ovary xenograft; TOV-21G xenograft, Supplement Table 3): 93%
Median TGI (TOV-21G ovary xenograft; TOV-21G, 50 mg/kg once daily per os): 93%
Sensitivity (NCI-H2110 lung xenograft): moderately sensitive (“moderately sensitive” for statistically significant TGI values of 57–83%)
oral bioavailability in patients [20]: orally bioavailable
safety profile in patients [20]: favorable safety profile
